Test results from ChEMBL document CHEMBL3046319, “PCR-RFLP detection of the E198A mutation conferring resistance to benzimidazoles in field isolates of Monilinia laxa from Greece” (Crop Prot, 2012).
Converted amounts (≈) assume the structure as drawn. The source made the active and inactive calls. The rule behind the calls is not given here.

What was measured:
Monilinia laxa [1] = assay: Fungicidal activity against Monilinia laxa isolate MLA1 assessed as virulence in prune fruits assessed as virulence treated 10 min prior to mycelial inoculation at 24 degC after 10 days relative to isolate MLX1by pathogenicity bioassay; type: functional
Monilinia laxa [2] = assay: Fungicidal activity against Monilinia laxa isolate MLKS2 assessed as reduction in mycelial growth rate at 25 degC after 4 days; type: functional, organism-based; details: isolate MLKS2, 96 h
Monilinia laxa [3] = assay: Fungicidal activity against Monilinia laxa isolate MLX4 assessed as reduction in mycelial growth rate at 25 degC after 4 days; type: functional, organism-based; details: isolate MLX4, 96 h
Monilinia laxa [4] = assay: Fungicidal activity against Monilinia laxa isolate MLG4 assessed as reduction in mycelial growth rate at 1 to 10 ug/ml at 31 degC after 5 days; type: functional, organism-based
Monilinia laxa [5] = assay: Fungicidal activity against Monilinia laxa isolate MLK4 assessed as reduction in mycelial growth rate at 1 to 10 ug/ml at 25 to 28 degC; type: functional, organism-based
Monilinia laxa [6] = assay: Fungicidal activity against Monilinia laxa isolate MLBO2 assessed as reduction in mycelial growth rate at 25 degC after 4 days; type: functional, organism-based; details: isolate MLBO2, 96 h
Monilinia laxa [7] = assay: Fungicidal activity against Monilinia laxa isolate MLX5 assessed as mean mycelial colony diameter at 25 degC after 4 days; type: functional
Monilinia laxa [8] = assay: Fungicidal activity against Monilinia laxa isolate KX5 assessed as reduction in mycelial growth rate at 1 to 10 ug/ml at 25 to 28 degC; type: functional, organism-based
Monilinia laxa [9] = assay: Fungicidal activity against Monilinia laxa isolate MLAl8 assessed as reduction in mycelial growth rate at 1 to 10 ug/ml at 28 degC after 8 days; type: functional, organism-based
Monilinia laxa [10] = assay: Fungicidal activity against Monilinia laxa isolate MLG7 assessed as reduction in mycelial growth rate at 25 degC after 4 days; type: functional, organism-based; details: isolate MLG7, 96 h
Monilinia laxa [11] = assay: Fungicidal activity against Monilinia laxa isolate MLA1 assessed as mean mycelial colony diameter at 25 degC after 4 days; type: functional
Monilinia laxa [12] = assay: Fungicidal activity against Monilinia laxa isolate MLX5 assessed as mean number of conidia produced in the colony at 25 degC after 12 days by haemocytometer; type: functional
Monilinia laxa [13] = assay: Fungicidal activity against Monilinia laxa isolate MLK12 assessed as reduction in mycelial growth rate at 1 to 10 ug/ml at 31 degC after 5 days; type: functional, organism-based
Monilinia laxa [14] = assay: Fungicidal activity against Monilinia laxa isolate MLC2 assessed as virulence in prune fruits assessed as virulence treated 10 min prior to mycelial inoculation at 24 degC after 10 days relative to isolate MLX1by pathogenicity bioassay; type: functional
Monilinia laxa [15] = assay: Fungicidal activity against Monilinia laxa isolate MLG4 assessed as reduction in mycelial growth rate at 25 degC after 4 days; type: functional, organism-based; details: isolate MLG4, 96 h
Monilinia laxa [16] = assay: Fungicidal activity against Monilinia laxa isolate MLBO8 assessed as reduction in mycelial growth rate at 25 degC after 4 days; type: functional, organism-based; details: isolate MLBO8, 96 h
Monilinia laxa [17] = assay: Fungicidal activity against Monilinia laxa isolate MLK2 assessed as reduction in mycelial growth rate at 1 to 10 ug/ml at 28 degC after 8 days; type: functional, organism-based
Monilinia laxa [18] = assay: Fungicidal activity against Monilinia laxa isolate MLBO5 assessed as reduction in mycelial growth rate at 1 to 10 ug/ml at 31 degC after 5 days; type: functional, organism-based
Monilinia laxa [19] = assay: Fungicidal activity against Monilinia laxa isolate MLK5 assessed as reduction in mycelial growth rate at 1 to 10 ug/ml at 25 to 28 degC; type: functional, organism-based
Monilinia laxa [20] = assay: Fungicidal activity against Monilinia laxa isolate KX3 assessed as reduction in mycelial growth rate at 25 degC after 4 days; type: functional, organism-based; details: isolate KX3, 96 h
Monilinia laxa [21] = assay: Fungicidal activity against Monilinia laxa isolate MLC2 assessed as mycelial growth at 1 ug/ml at 25 degC after 4 days; type: functional
Monilinia laxa [22] = assay: Fungicidal activity against Monilinia laxa isolate MLNS1 assessed as reduction in mycelial growth rate at 1 to 10 ug/ml at 25 to 28 degC; type: functional, organism-based
Monilinia laxa [23] = assay: Fungicidal activity against Monilinia laxa isolate MLK10 assessed as reduction in mycelial growth rate at 25 degC after 4 days; type: functional, organism-based; details: isolate MLK10, 96 h
Monilinia laxa [24] = assay: Fungicidal activity against Monilinia laxa isolate MLK5 assessed as reduction in mycelial growth rate at 1 to 10 ug/ml at 31 degC after 5 days; type: functional, organism-based
Monilinia laxa [25] = assay: Fungicidal activity against Monilinia laxa isolate MLK6 assessed as reduction in mycelial growth rate at 1 to 10 ug/ml at 25 to 28 degC; type: functional, organism-based
Monilinia laxa [26] = assay: Fungicidal activity against Monilinia laxa isolate MLX2 assessed as reduction in mycelial growth rate at 25 degC after 4 days; type: functional, organism-based; details: isolate MLX2, 96 h
Monilinia laxa [27] = assay: Fungicidal activity against Monilinia laxa isolate MLC5 assessed as reduction in mycelial growth rate at 25 degC after 4 days; type: functional, organism-based; details: isolate MLC5, 96 h
Monilinia laxa [28] = assay: Fungicidal activity against Monilinia laxa isolate MLC6 assessed as reduction in mycelial growth rate at 1 to 10 ug/ml at 31 degC after 5 days; type: functional, organism-based
Monilinia laxa [29] = assay: Fungicidal activity against Monilinia laxa isolate MLNS2 assessed as reduction in mycelial growth rate at 1 to 10 ug/ml at 25 to 28 degC; type: functional, organism-based
Monilinia laxa [30] = assay: Fungicidal activity against Monilinia laxa isolate KX4 assessed as reduction in mycelial growth rate at 25 degC after 4 days; type: functional, organism-based; details: isolate KX4, 96 h
Monilinia laxa [31] = assay: Fungicidal activity against Monilinia laxa isolate MLK8 assessed as reduction in mycelial growth rate at 25 degC after 4 days; type: functional, organism-based; details: isolate MLK8, 96 h
Monilinia laxa [32] = assay: Fungicidal activity against Monilinia laxa isolate MLP4 assessed as reduction in mycelial growth rate at 1 to 10 ug/ml at 25 to 28 degC; type: functional, organism-based
Monilinia laxa [33] = assay: Fungicidal activity against Monilinia laxa isolate MLC1 assessed as reduction in mycelial growth rate at 25 degC after 4 days; type: functional, organism-based; details: isolate MLC1, 96 h
Monilinia laxa [34] = assay: Fungicidal activity against Monilinia laxa isolate MLK24 assessed as reduction in mycelial growth rate at 1 to 10 ug/ml at 31 degC after 5 days; type: functional, organism-based
Monilinia laxa [35] = assay: Fungicidal activity against Monilinia laxa isolate MLK6 assessed as reduction in mycelial growth rate at 25 degC after 4 days; type: functional, organism-based; details: isolate MLK6, 96 h
Monilinia laxa [36] = assay: Fungicidal activity against Monilinia laxa isolate MLNS1 assessed as reduction in mycelial growth rate at 1 to 10 ug/ml at 31 degC after 5 days; type: functional, organism-based
Monilinia laxa [37] = assay: Fungicidal activity against Monilinia laxa isolate MLBO3 assessed as reduction in mycelial growth rate at 1 to 10 ug/ml at 31 degC after 5 days; type: functional, organism-based
Monilinia laxa [38] = assay: Fungicidal activity against Monilinia laxa isolate KX4 assessed as reduction in mycelial growth rate at 1 to 10 ug/ml at 31 degC after 5 days; type: functional, organism-based
Monilinia laxa [39] = assay: Fungicidal activity against Monilinia laxa isolate KX4 assessed as reduction in mycelial growth rate at 1 to 10 ug/ml at 28 degC after 8 days; type: functional, organism-based
Monilinia laxa [40] = assay: Fungicidal activity against Monilinia laxa isolate MLBO5 assessed as reduction in mycelial growth rate at 25 degC after 4 days; type: functional, organism-based; details: isolate MLBO5, 96 h
Monilinia laxa [41] = assay: Fungicidal activity against Monilinia laxa isolate MLK5 assessed as reduction in mycelial growth rate at 1 to 10 ug/ml at 28 degC after 8 days; type: functional, organism-based
Monilinia laxa [42] = assay: Fungicidal activity against Monilinia laxa isolate KX3 assessed as reduction in mycelial growth rate at 1 to 10 ug/ml at 31 degC after 5 days; type: functional, organism-based

Question: How did the Activity (Monilinia laxa [1]) turn out when COC(=O)Nc1nc2ccccc2[nH]1 [CARBENDAZIM] was run?
Answer: Its Activity is 90.33%.

Question: And the EC50 (Monilinia laxa [2])?
Answer: Its EC50 is 0.01 µg/mL (≈ 0.0523 µM).

Question: And the EC50 (Monilinia laxa [3])?
Answer: Its EC50 is 0.11 µg/mL (≈ 0.575 µM).

Question: And the inhibition (Monilinia laxa [4])?
Answer: Its inhibition is “Active”.

Question: And the inhibition (Monilinia laxa [5])?
Answer: Its inhibition is “inactive”.

Question: And the EC50 (Monilinia laxa [6])?
Answer: Its EC50 is 0.18 µg/mL (≈ 0.941 µM).

Question: And the Activity (Monilinia laxa [7])?
Answer: The Activity was 28.3 mm.

Question: And the inhibition (Monilinia laxa [8])?
Answer: The inhibition was “inactive”.

Question: And the inhibition (Monilinia laxa [9])?
Answer: Its inhibition is “inactive”.

Question: What about the EC50 (Monilinia laxa [10]) of the same compound?
Answer: The EC50 was 0.12 µg/mL (≈ 0.628 µM).

Question: What about the Activity (Monilinia laxa [11]) of the same compound?
Answer: Its Activity is 27.1 mm.

Question: And the Activity (Monilinia laxa [12])?
Answer: The Activity was 4.4 /cm2.

Question: And the inhibition (Monilinia laxa [13])?
Answer: The inhibition was “Active”.

Question: What about the Activity (Monilinia laxa [14]) of the same compound?
Answer: Its Activity is 98.52%.

Question: What about the EC50 (Monilinia laxa [15]) of the same compound?
Answer: The EC50 was 0.11 µg/mL (≈ 0.575 µM).

Question: What about the EC50 (Monilinia laxa [16]) of the same compound?
Answer: The EC50 was 0.06 µg/mL (≈ 0.314 µM).

Question: What about the inhibition (Monilinia laxa [17]) of the same compound?
Answer: Its inhibition is “inactive”.

Question: And the inhibition (Monilinia laxa [18])?
Answer: Its inhibition is “Active”.

Question: What about the inhibition (Monilinia laxa [19]) of the same compound?
Answer: The inhibition was “inactive”.

Question: What about the EC50 (Monilinia laxa [20]) of the same compound?
Answer: The EC50 was 0.09 µg/mL (≈ 0.471 µM).

Question: And the Activity (Monilinia laxa [21])?
Answer: The Activity was 98.28%.

Question: And the inhibition (Monilinia laxa [22])?
Answer: Its inhibition is “inactive”.

Question: What about the EC50 (Monilinia laxa [23]) of the same compound?
Answer: The EC50 was 0.07 µg/mL (≈ 0.366 µM).

Question: What about the inhibition (Monilinia laxa [24]) of the same compound?
Answer: Its inhibition is “Active”.

Question: And the inhibition (Monilinia laxa [25])?
Answer: The inhibition was “inactive”.

Question: And the EC50 (Monilinia laxa [26])?
Answer: Its EC50 is 0.12 µg/mL (≈ 0.628 µM).

Question: And the EC50 (Monilinia laxa [27])?
Answer: Its EC50 is 0.11 µg/mL (≈ 0.575 µM).

Question: And the inhibition (Monilinia laxa [28])?
Answer: The inhibition was “Active”.

Question: And the inhibition (Monilinia laxa [29])?
Answer: The inhibition was “inactive”.

Question: And the EC50 (Monilinia laxa [30])?
Answer: The EC50 was over 50 µg/mL.

Question: What about the EC50 (Monilinia laxa [31]) of the same compound?
Answer: The EC50 was 0.09 µg/mL (≈ 0.471 µM).

Question: What about the inhibition (Monilinia laxa [32]) of the same compound?
Answer: Its inhibition is “inactive”.

Question: And the EC50 (Monilinia laxa [33])?
Answer: The EC50 was 0.03 µg/mL (≈ 0.157 µM).

Question: And the inhibition (Monilinia laxa [34])?
Answer: Its inhibition is “Active”.

Question: And the EC50 (Monilinia laxa [35])?
Answer: Its EC50 is over 50 µg/mL.

Question: And the inhibition (Monilinia laxa [36])?
Answer: Its inhibition is “Active”.

Question: And the inhibition (Monilinia laxa [37])?
Answer: Its inhibition is “Active”.

Question: What about the inhibition (Monilinia laxa [38]) of the same compound?
Answer: Its inhibition is “Active”.

Question: What about the inhibition (Monilinia laxa [39]) of the same compound?
Answer: The inhibition was “inactive”.

Question: And the EC50 (Monilinia laxa [40])?
Answer: The EC50 was 0.07 µg/mL (≈ 0.366 µM).

Question: And the inhibition (Monilinia laxa [41])?
Answer: Its inhibition is “inactive”.

Question: And the inhibition (Monilinia laxa [42])?
Answer: The inhibition was “Active”.
